Key:
[1] = test system: duplex DNA (w794, w836, c988, c820); test: DNA alkylation selectivity within four 150 base-pair segments of duplex DNA; format: biochemical, SV40
Description: (§1) The DNA alkylation properties of the agents were examined within four 150 base-pair segments of duplex DNA for which comparative results are available for related agents. Four clones of phage M13mp10 were selected for study and contain the SV40 nucleosomal DNA inserts w794 (nucleotide no. 5238-138) and its complement w836 (nucleotide no. 5189-91) and c988 (nucleotide no. 4359-4210) and its complement c820 (nucleotide no. 4201-4356). The alkylation site identification and the assessment of the relative selectivity among the available sites were obtained by thermally-induced strand cleavage of the singly 5'end-labeled duplex DNA after exposure to the agents. Following treatment of the end-labeled duplex DNA with a range of agent concentrations, the unbound agent was removed by EtOH precipitation of the DNA. Redissolution of the DNA in aqueous buffer, thermolysis (100° C., 30 minutes) to induce strand cleavage at the sites of DNA alkylation, denaturing high resolution polyacrylamide gel electrophoresis (PAGE) adjacent to Sanger dideoxynucleotide sequencing standards, and autoradiography led to identification of the DNA cleavage and alkylation sites. The full details of this procedure have been disclosed and discussed elsewhere (10). The DNA alkylation reaction selectivities observed under the incubation conditions of 25° C. (24 hours) for the agents detailed herein have proven identical to the alkylation selectivities observed with shorter or extended reaction periods or when the reactions were conducted at different temperatures (37 or 4° C., 0.5-7 days). As discussed below, the rates and efficiencies but not final relative efficiencies of DNA alkylation were altered by changing the reaction temperatures.

[2] = test system: w794 DNA (SV40 DNA fragment, 144 bp); test: DNA alkylation, thermally-induced strand cleavage of w794 DNA; format: biochemical; conditions: for selectivity and efficiency of DNA alkylation, natural enantiomers compared: 25° C., 24 hours, 254 vs 2, 266 vs 1; for concentration of detectable DNA alkylation, natural enantiomers: w794, 25° C., 24 hours (FIG. 17); for concentration of detectable DNA alkylation, unnatural enantiomers: 72 hours (FIG. 13)
Experimental: FIG. 13 illustrates thermally-induced strand cleavage of double-stranded DNA (SV40 DNA fragment, 144 bp, nucleotide no. 5238-138, clone w794) after 72 hours incubation of agent-DNA at 37° C. followed by removal of unbound agent and 30 minutes incubation at 100° C.; 8% denaturing PAGE and autoradiography. Lane 1, control DNA; lanes 2-4, (-)-MCBI-TMI (254, 1×10^-5 to 1×10^-7 M); lanes 5-7, (-)-duocarmycin SA (2, 1×10^-5 to 1×10^-7 M); lanes 8-11, Sanger G, C, A and T reactions; lanes 12-14, (-)-CC-1065 (1, 1×10^-5 to 1×10^-7 M); lanes 15-17, (-)-MCBI-CDPI2 (266, 1×10^-5 to 1×10^-7 M); lanes 18-20, (-)-MCBI-CDPI1 (262, 1×10^-5 to 1×10^-7 M); lanes 21-23 (-)-MCBI-indole2 (258, 1×10^-5 to 1×10^-7 M).
As indicated, the DNA-agent incubation was conducted at 37° C. for 24 or 48 hours, followed by removal of unbound agent and 30 minutes incubation at 100° C.; 8% denaturing PAGE and autoradiography.
FIG. 17 illustrates thermally-induced strand cleavage of double-stranded DNA (SV40 DNA fragment, 144 bp, nucleotide no. 5238-138, clone w794) after 24 hours incubation of agent-DNA at 25° C. followed by removal of unbound agent and 30 minutes incubation at 100° C; 8% denaturing PAGE and autoradiography. Lane 1, control DNA; lanes 2-4, (+)-duocarmycin SA (2, 1×10^-5 to 1×10^-7 M); lanes 5-7, (+)-MCBI-TMI (254, 1×10^-5 to 1×10^-7 M); lanes 8-11, Sanger G, C, A and T reactions; lanes 12-14, (+)-CC-1065 (1, 1×10^-5 to 1×10^-7 M); lanes 15-17, (+)-MCBI-indole2 (258, 1×10^-5 to 1×10^-7 M); lanes 18-20, (+)-MCBI-CDPI2 (266, 1×10^-5 to 1×10^-7 M).
as §1

[3] = test system: w794 5'-AATTA high affinity site; test: Relative rate of w794 alkylation at the 5'-AATTA high-affinity site; format: biochemical, SV40; conditions: 10^-6 M; for relative rate of DNA alkylation k(254):k(CBI-TMI):k(2): 4° C., 0-48 hours
Experimental: FIG. 15 illustrates a plot of percent integrated optical density (% IOD) versus time established through autoradiography of 5'-^32 P and labeled DNA and used to monitor the relative rate of w794 alkylation at the 5'-AATTA high-affinity site for 1, 254, 258, (+)-CBI-TMI and (+)-DSA-indole2.
Representative of this difficulty in detecting distinguishing relative rates for the three classes of agents, a similar rate comparison of (+)-DSA-indole2 and (+)-MCBI-indole2 (258) conducted at 25° C. […] In sharp contrast, all three kinetically alkylate DNA much faster than the corresponding CPI-based agent (10-50×) where the distinctions are much more pronounced and easily experimentally distinguished.

L1210 = test: In vitro cytotoxic activity; format: cell-based
[4] = test system: w794 DNA (SV40 DNA fragment, 144 bp); conditions: cited from earlier work
[5] = Solvolysis reactivity (UV), aqueous buffer-CH3OH; format: physicochemical; conditions: pH 7, 1:1 H2O-CH3OH
[6] = Solvolysis reactivity (UV), aqueous buffer-CH3OH; format: physicochemical
Experimental: The solvolysis was followed spectrophotometrically by UV with the disappearance of the long-wavelength absorption band of the MCBI chromophore ([…]) and with the appearance of a short-wavelength absorption band (266 nm) attributable to seco-N-BOC-MCBI (FIG. 9).
N-BOC-MCBI (238, 0.1 mg) was dissolved in CH3 OH (1.5 mL) and mixed with pH 3 aqueous buffer (1.5 mL). The buffer contained 4:1:20 (v:v:v) 0.1 M citric acid, 0.2 M Na2 HPO4, and H2 O, respectively. The solvolysis solution was sealed and kept at 25° C. protected from light. The UV spectrum was measured at regular intervals every 2 hours during the first day, every 12 hours for another week, and every 24 hours for an additional week. The decrease in the long-wavelength absorption at 324 nm and the increase in the short-wavelength absorption at 266 nm were monitored, FIG. 1.
Similarly, MCBI (240, 0.1 mg) was dissolved in CH3 OH (1.5 mL) and mixed with […] (1.5 mL). The solvolysis solution was sealed and stirred at 25° C. in the dark. The UV spectrum was recorded every 24 hours for two months. The decrease in the long-wavelength absorption at 340 nm and the increase in absorption at 268 nm were monitored, FIG. 1.

COC(=O)c1cc2c([nH]1)C(=O)C=C1N(C(=O)c3cc4cc(OC)c(OC)c(OC)c4[nH]3)CC3CC123 (single isomer, unassigned; (+)) [(+)-duocarmycin SA, reference compound]
AT-rich alkylation selectivity, size of site, natural enantiomers [1]: 3.5 base-pair
selectivity and efficiency of DNA alkylation, natural enantiomers compared [2]: indistinguishable
concentration of detectable DNA alkylation, natural enantiomers [2]: 10^-6 to 10^-7 M
concentration of detectable DNA alkylation, unnatural enantiomers ([2]; w794, 37° C.): 10^-5 M
relative rate of DNA alkylation k(254):k(CBI-TMI):k(2) [3]: 0.9

COc1cc2cc(C(=O)N3C[C@H]4C[C@@]45C3=CC(=O)c3ccccc35)[nH]c2c(OC)c1OC [(+)-CBI-TMI]
relative rate of DNA alkylation k(254):k(CBI-TMI):k(2) [3]: 1.0

COC(=O)c1cc2c([nH]1)C(=O)C=C1N(C(=O)c3cc4cc(NC(=O)c5cc6ccccc6[nH]5)ccc4[nH]3)C[C@H]3C[C@]123 [(+)-DSA-indole2]
relative rate k(DSA-indole2)/k(MCBI-indole2) ([3]; 25° C., 0-24 hours): 1.05

COc1ccc2c(c1)[C@@]13C[C@@H]1CN(C(=O)c1cc4cc(OC)c(OC)c(OC)c4[nH]1)C3=CC2=O [(+)-MCBI-TMI]
cytotoxic potency of natural enantiomer relative to unnatural enantiomer (L1210; fold, natural more potent than unnatural): 50 ×
selectivity and efficiency of DNA alkylation, natural enantiomers compared [2]: indistinguishable
concentration of detectable DNA alkylation, natural enantiomers [2]: 10^-6 to 10^-7 M
relative rate of DNA alkylation k(254):k(CBI-TMI):k(2) [3]: 1.8

CC(C)(C)OC(=O)N1C[C@H]2C[C@@]23C1=CC(=O)c1ccccc13 [(+)-N-BOC-CBI]
relative efficiency of DNA alkylation, natural/unnatural enantiomer (earlier agent) ([4]; (+)-N-BOC-CBI/ent-(-)-N-BOC-CBI): 5-10 ×

COc1cc2cc(C(=O)N3C[C@@H]4C[C@]45C3=CC(=O)c3ccccc35)[nH]c2c(OC)c1OC [(-)-CBI-TMI]
DNA alkylation distinction between (-)-CBI-TMI and ent-(-)-duocarmycin SA ([4]; prior comparison): 10 ×

COc1ccc2c(c1)C13CC1CN(C(=O)OC(C)(C)C)C3=CC2=O (stereo not drawn) [Compound 238, N-(tert-Butyloxycarbonyl)-7-methoxy-1,2,9,9a-tetrahydrocyclopropa[c]benz[e]indol-4-one]
evidence of solvolysis at pH 7 [5]: did not show evidence of solvolysis
acceleration of rate of solvolysis by C7 methoxy group vs. corresponding CBI agent ([6]; acid-catalyzed solvolysis, pH 3): 1.6 ×
half-life relative to parent agent N-BOC-CBI (4) ([6]; pH 3): 0.6 times
solvolysis rate constant k ([6]; pH 3, 50% CH3OH-buffer, 25° C.): 2.41e-06 s⁻¹
half-life ([6]; pH 3, 50% CH3OH-buffer, 25° C., read-out: solvolysis half-life t1/2 (converted)): 80 h
alkylation selectivity of N-BOC-MCBI ([2]; both enantiomers, two base-pair AT-rich selectivity): 5'-AA>5'-TA
DNA alkylation efficiency relative to 257-266 ([2]; fold less efficient, both enantiomers): 10^4 ×
concentration of detectable DNA alkylation, two enantiomers of N-BOC-MCBI ([2]; w794, 37° C., 24-48 hours (FIG. 16)): 10^-2 to 10^-3 M

COc1ccc2c(c1)C13CC1CN(C(=O)c1cc4cc(OC)c(OC)c(OC)c4[nH]1)C3=CC2=O (stereo not drawn) [Compound 254]
AT-rich alkylation selectivity, size of site, natural enantiomers [1]: 3.5 base-pair
enantiomer distinction (in words) (L1210; natural vs unnatural enantiomer, listed as MCBI-TMI): analogous distinctions but somewhat smaller than those observed with CBI-TMI
concentration of detectable DNA alkylation, unnatural enantiomers ([2]; w794, 37° C.): 10^-5 M

— US5985908A, “MCBI analogs of CC-1065 and the duocarmycins” (The Scripps Research Institute, priority 1998, dated 1999)
